Reference: patent publication US20230233569A1 (Revolution Medicines, Inc., priority 2020, published 2023)

Columns and labels:
[1] = molecular target: KRAS G12C (Homo sapiens, UniProt P01116+P62937, G12C); assay: Disruption of BRAF RBD interaction with Ras (FRET / MOA assay, with Cyclophilin A); assay type: biochemical; details: read-out: KRAS G12C FRET data, IC50
Outline: (§1)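 Measured via TR-FRET after 3 h at 25 °C with compound (30 μM top, threefold serial steps, ten concentrations) plus K-Ras, Cyclophilin A and BRAF RBD, followed by 1.5 h with anti-His europium (10 nM) and anti-GST allophycocyanin (50 nM). Signal loss versus DMSO gave IC50.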

[2] = molecular target: KRAS G13D (Homo sapiens, UniProt P01116+P62937, G13D); assay: as above; assay type: biochemical; details: KRAS G13D; read-out: KRAS G13D FRET data IC50
Outline: as §1

[3] = molecular target: KRAS G12D (Homo sapiens, UniProt P01116+P62937, G12D); assay: as above; assay type: biochemical; details: read-out: KRAS G12D FRET data, IC50
Outline: as §1

[4] = molecular target: KRAS G12S (Homo sapiens, UniProt P01116+P62937, G12S); assay: as above; assay type: biochemical; details: read-out: KRAS G12S FRET data, IC50
Outline: as §1

[5] = molecular target: KRAS G12V (Homo sapiens, UniProt P01116+P62937, G12V); assay: as above; assay type: biochemical; details: KRAS G12V; read-out: KRAS G12V FRET data IC50
Outline: as §1

[6] = molecular target: NRAS G12C (Homo sapiens, UniProt P01111+P62937, G12C); assay: as above; assay type: biochemical; details: NRAS G12C; read-out: NRAS G12C FRET data IC50
[7] = molecular target: KRAS WT (Homo sapiens, UniProt P01116+P62937); assay: as above; assay type: biochemical; details: KRAS WT; read-out: KRAS WT FRET data IC50
Outline: as §1

[8] = molecular target: KRAS G13C (Homo sapiens, UniProt P01116+P62937, G13C); assay: as above; assay type: biochemical; details: read-out: KRAS G13C FRET data, IC50
Outline: as §1

[9] = system: NCI-H358 (K-Ras G12C); assay: CellTiter-Glo cell viability assay, 5-day treatment; assay type: cell-based; details: Homo sapiens, NCI-H358, 120 h, 5-day treatment; read-out: H358 Cell Viability assay data (K-Ras G12C, IC50)
Outline: (§2)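 Luminescence read-out after 5 days of compound exposure, with plates first brought to room temperature for roughly 30 minutes. Values are percent of averaged DMSO wells, fitted by four-parameter logistic regression.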

[10] = system: Capan-1 (K-Ras G12V); assay: as above; assay type: cell-based; details: Homo sapiens, CAPAN-1, 120 h, 5-day treatment; read-out: Capan-1 Cell Viability assay data (K-Ras G12V, IC50)
Outline: as §2

KRAS G13C, sequence (P01116 1-169 isoform P01116-2 G13C): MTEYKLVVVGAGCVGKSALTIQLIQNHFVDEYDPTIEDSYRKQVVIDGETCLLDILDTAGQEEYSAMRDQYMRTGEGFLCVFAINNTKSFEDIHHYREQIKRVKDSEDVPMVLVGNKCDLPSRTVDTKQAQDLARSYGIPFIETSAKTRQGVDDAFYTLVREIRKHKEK
KRAS G13C, sequence (P62937 whole entry): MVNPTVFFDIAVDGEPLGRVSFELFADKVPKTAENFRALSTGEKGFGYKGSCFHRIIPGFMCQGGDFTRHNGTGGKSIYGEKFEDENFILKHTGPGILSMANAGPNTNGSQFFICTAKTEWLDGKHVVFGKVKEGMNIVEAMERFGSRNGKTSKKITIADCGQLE
KRAS WT, sequence (P01116 1-169 isoform P01116-2 limits assumed): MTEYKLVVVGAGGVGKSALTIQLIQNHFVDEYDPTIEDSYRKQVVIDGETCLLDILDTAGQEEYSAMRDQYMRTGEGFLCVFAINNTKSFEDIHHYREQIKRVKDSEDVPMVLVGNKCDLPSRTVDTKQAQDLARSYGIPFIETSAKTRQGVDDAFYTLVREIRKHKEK
KRAS WT, sequence (P62937 whole entry): as the sequence (P62937 whole entry) above
KRAS G13D, sequence (P01116 1-169 isoform P01116-2 G13D limits assumed): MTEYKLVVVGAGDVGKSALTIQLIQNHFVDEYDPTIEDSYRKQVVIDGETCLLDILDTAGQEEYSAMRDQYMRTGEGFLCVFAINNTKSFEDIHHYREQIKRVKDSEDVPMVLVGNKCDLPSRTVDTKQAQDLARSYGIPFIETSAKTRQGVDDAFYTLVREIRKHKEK
KRAS G13D, sequence (P62937 whole entry): as the sequence (P62937 whole entry) above
KRAS G12C, sequence (P01116 1-169 isoform P01116-2 G12C): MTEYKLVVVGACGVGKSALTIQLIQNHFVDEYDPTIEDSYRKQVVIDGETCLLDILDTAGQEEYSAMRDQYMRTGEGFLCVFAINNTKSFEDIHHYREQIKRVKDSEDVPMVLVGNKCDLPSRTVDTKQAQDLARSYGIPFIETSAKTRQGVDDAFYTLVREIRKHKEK
KRAS G12C, sequence (P62937 whole entry): as the sequence (P62937 whole entry) above
KRAS G12S, sequence (P01116 1-169 isoform P01116-2 G12S limits assumed): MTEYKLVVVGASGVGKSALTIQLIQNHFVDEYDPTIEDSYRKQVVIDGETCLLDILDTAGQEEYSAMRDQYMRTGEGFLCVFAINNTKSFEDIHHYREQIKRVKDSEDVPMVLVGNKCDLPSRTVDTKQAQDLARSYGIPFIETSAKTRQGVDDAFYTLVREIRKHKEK
KRAS G12S, sequence (P62937 whole entry): as the sequence (P62937 whole entry) above
KRAS G12D, sequence (P01116 1-169 isoform P01116-2 G12D limits assumed): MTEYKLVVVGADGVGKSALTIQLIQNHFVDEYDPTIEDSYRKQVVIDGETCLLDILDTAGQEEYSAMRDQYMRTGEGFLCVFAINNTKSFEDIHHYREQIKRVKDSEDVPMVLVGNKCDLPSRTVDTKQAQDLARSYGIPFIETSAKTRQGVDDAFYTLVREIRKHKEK
KRAS G12D, sequence (P62937 whole entry): as the sequence (P62937 whole entry) above
NRAS G12C, sequence (P01111 whole entry G12C): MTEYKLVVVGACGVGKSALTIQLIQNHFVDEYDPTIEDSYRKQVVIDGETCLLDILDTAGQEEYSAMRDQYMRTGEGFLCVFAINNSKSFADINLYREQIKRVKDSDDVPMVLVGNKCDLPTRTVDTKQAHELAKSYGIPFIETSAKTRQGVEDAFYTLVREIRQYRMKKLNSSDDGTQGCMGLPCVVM
NRAS G12C, sequence (P62937 whole entry): as the sequence (P62937 whole entry) above
KRAS G12V, sequence (P01116 1-169 isoform P01116-2 G12V limits assumed): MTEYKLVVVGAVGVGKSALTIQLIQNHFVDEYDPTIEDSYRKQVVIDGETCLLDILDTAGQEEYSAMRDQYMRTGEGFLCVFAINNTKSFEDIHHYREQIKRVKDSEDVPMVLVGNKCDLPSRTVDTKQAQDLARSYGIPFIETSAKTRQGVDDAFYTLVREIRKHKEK
KRAS G12V, sequence (P62937 whole entry): as the sequence (P62937 whole entry) above

Compound	IC50 [1]	IC50 [2]	IC50 [3]	IC50 [4]	IC50 [5]	IC50 [6]	IC50 [7]	IC50 [8]	IC50 [9]	IC50 [10]
CCn1c(-c2cccnc2[C@H](C)OC)c2c3cc(ccc31)-c1cc(O)cc(c1)C[C@H](NC(=O)[C@H](C(C)C)N(C)C(=O)[C@H]1CCCN[C@@H]1C)C(=O)N1CCC[C@H](N1)C(=O)OCC(C)(C)C2 [Example A134]	100 to 1000 nM	10 to 100 nM	10 to 100 nM	100 to 1000 nM	1000 to 10000 nM	100 to 1000 nM	100 to 1000 nM	10 to 100 nM	1000 to 10000 nM	> 10000 nM
CCn1c(-c2cccnc2[C@H](C)OC)c2c3cc(ccc31)-c1csc(n1)C[C@H](NC(=O)[C@H](C(C)C)N(C)C(=O)NC)C(=O)N1CCC[C@H](N1)C(=O)OCC(C)(C)C2 [Example A137]	100 to 1000 nM	1000 to 10000 nM	1000 to 10000 nM	1000 to 10000 nM	100 to 1000 nM	100 to 1000 nM	100 to 1000 nM	1000 to 10000 nM	100 to 1000 nM	100 to 1000 nM
CCn1c(-c2cccnc2[C@H](C)OC)c2c3cc(ccc31)-c1csc(n1)C[C@H](NC(=O)[C@H](C1CCCC1)N(C)C(C)=O)C(=O)N1CCC[C@H](N1)C(=O)OCC(C)(C)C2 [Example A141]	1000 to 10000 nM	1000 to 10000 nM	> 10000 nM	1000 to 10000 nM	1000 to 10000 nM	1000 to 10000 nM	1000 to 10000 nM	1000 to 10000 nM	10 to 100 nM	10 to 100 nM
CCn1c(-c2cccnc2[C@H](C)OC)c2c3cc(ccc31)-c1csc(n1)C[C@H](NC(=O)[C@H](C(C)C)N(C)C(=O)[C@@H]1OCC[C@@H]1C)C(=O)N1CCC[C@H](N1)C(=O)OCC(C)(C)C2 [Example A143]	1000 to 10000 nM	1000 to 10000 nM	> 10000 nM	1000 to 10000 nM	1000 to 10000 nM	1000 to 10000 nM	1000 to 10000 nM	1000 to 10000 nM	100 to 1000 nM	100 to 1000 nM
CCn1c(-c2cccnc2[C@H](C)OC)c2c3cc(ccc31)-c1cc(O)cc(c1)C[C@H](NC(=O)[C@H](C(C)C)N(C)C(=O)C1CC13CC3)C(=O)N1CCC[C@H](N1)C(=O)OCC(C)(C)C2 (stereo partly drawn) [Example A156]	10 to 100 nM	100 to 1000 nM	100 to 1000 nM	10 to 100 nM	10 to 100 nM	10 to 100 nM	10 to 100 nM	10 to 100 nM	10 to 100 nM	10 to 100 nM

Continued, in another order:

IC50 [1]	IC50 [2]	IC50 [3]	IC50 [4]	IC50 [5]	IC50 [6]	IC50 [7]	IC50 [8]	IC50 [9]	Compound	IC50 [10]
10 to 100 nM	100 to 1000 nM	100 to 1000 nM	100 to 1000 nM	10 to 100 nM	10 to 100 nM	10 to 100 nM	10 to 100 nM	100 to 1000 nM	CCn1c(-c2cccnc2[C@H](C)OC)c2c3cc(ccc31)-c1cc(O)cc(c1)C[C@H](NC(=O)[C@H](C(C)C)N(C)C(=O)[C@H]1C[C@H]1C)C(=O)N1CCC[C@H](N1)C(=O)OCC(C)(C)C2 [Example A146]	100 to 1000 nM
10 to 100 nM	100 to 1000 nM	100 to 1000 nM	10 to 100 nM	10 to 100 nM	10 to 100 nM	10 to 100 nM	10 to 100 nM	10 to 100 nM	CCn1c(-c2cccnc2[C@H](C)OC)c2c3cc(ccc31)-c1cc(O)cc(c1)C[C@H](NC(=O)[C@H](C(C)C)N(C)C(=O)[C@@H]1C[C@H]1C)C(=O)N1CCC[C@H](N1)C(=O)OCC(C)(C)C2 [Example A147]	100 to 1000 nM
10 to 100 nM	10 to 100 nM	10 to 100 nM	10 to 100 nM	100 to 1000 nM	10 to 100 nM	10 to 100 nM	10 to 100 nM	1000 to 10000 nM	CCn1c(-c2cccnc2[C@H](C)OC)c2c3cc(ccc31)-c1cc(O)cc(c1)C[C@H](NC(=O)[C@H](C(C)C)N(C)C(=O)C1CC13CCNC3)C(=O)N1CCC[C@H](N1)C(=O)OCC(C)(C)C2 (stereo partly drawn) [Example A148]	1000 to 10000 nM
10 to 100 nM	10 to 100 nM	100 to 1000 nM	100 to 1000 nM	100 to 1000 nM	100 to 1000 nM	10 to 100 nM	10 to 100 nM	100 to 1000 nM	CCn1c(-c2cccnc2[C@H](C)OC)c2c3cc(ccc31)-c1cc(O)cc(c1)C[C@H](NC(=O)[C@H](C(C)C)N(C)C(=O)C13CNCC1C3)C(=O)N1CCC[C@H](N1)C(=O)OCC(C)(C)C2 (stereo partly drawn) [Example A155]	1000 to 10000 nM
